Data on 20 molecules can be found in patent publication US8133913B2, “Substituted indeno [1,2-b]indole derivatives as novel inhibitors of protein kinase CK2 and their use as tumor therapeutic agents, cytostatics and diagnostic aids” (Heinrich-Heine Universitat Dusseldof, priority 2006, dated 2012).

For data set [1], the target named is T1, human CK2 protein kinase (holoenzyme) (Homo sapiens, UniProt P68400).
T1 construct: made in house; host or cells: E. coli BL21(DE3), pT7-7 or bicistronic pET11d-CK2α, β
Nature of the data set: Inhibition of recombinant human CK2 protein kinase (holoenzyme), radiometric filter assay with peptide […]. It is filed as biochemical. The following applies: for inhibition at 10 µM: 10 μM compound, DMSO control = 100% CK2 activity, at least three independent experiments; for IC50: concentration range 30 μM to 0.01 μM, 100 μM ATP in assay buffer.

The next data set relates to 5637. Nature of the data set: Proliferation of tumor cell lines (Bracht et al.). The following applies: for activity at 20 µM: 5637, tested at 20 μM. It is filed as cell-based.
The next data set relates to SISO. Put plainly: Proliferation of tumor cell lines (Bracht et al.). The following applies: for activity at 20 µM: tested at 20 μM. It counts as cell-based.
The test system of a further data set is KYSE-70. Nature of the data set: Proliferation of tumor cell lines (Bracht et al.). The following applies: Homo sapiens; for activity at 20 µM: KYSE-70, tested at 20 μM. It counts as cell-based.
The next data set relates to MCF-7. Nature of the data set: Proliferation of tumor cell lines (Bracht et al.). It counts as cell-based. To be noted: Homo sapiens, MCF7, read-out: IC50 (μM) Mean, inhibition of cell proliferation.
A further data set has as its system DAN-G. Put plainly: Proliferation of tumor cell lines (Bracht et al.). The following applies: read-out: IC50 (μM) Mean, inhibition of cell proliferation. It is filed as cell-based.
A further data set relates to LCLC. Put plainly: Proliferation of tumor cell lines (Bracht et al.). It counts as cell-based. To be noted: read-out: IC50 (μM) Mean, inhibition of cell proliferation.
In the next data set the test system is A427. Put plainly: Proliferation of tumor cell lines (Bracht et al.). It counts as cell-based. To be noted: Homo sapiens, A-427, read-out: IC50 (μM) Mean, inhibition of cell proliferation.
In the next data set the test system is RT-4. Nature of the data set: Proliferation of tumor cell lines (Bracht et al.). It is filed as cell-based. The following applies: Homo sapiens, read-out: IC50 (μM) Mean, inhibition of cell proliferation.
Another data set deals with CK2. To be noted: known CK2 inhibitors, investigated predominantly on the rat enzyme; cited from earlier work.

T1 sequence (P68400 whole entry): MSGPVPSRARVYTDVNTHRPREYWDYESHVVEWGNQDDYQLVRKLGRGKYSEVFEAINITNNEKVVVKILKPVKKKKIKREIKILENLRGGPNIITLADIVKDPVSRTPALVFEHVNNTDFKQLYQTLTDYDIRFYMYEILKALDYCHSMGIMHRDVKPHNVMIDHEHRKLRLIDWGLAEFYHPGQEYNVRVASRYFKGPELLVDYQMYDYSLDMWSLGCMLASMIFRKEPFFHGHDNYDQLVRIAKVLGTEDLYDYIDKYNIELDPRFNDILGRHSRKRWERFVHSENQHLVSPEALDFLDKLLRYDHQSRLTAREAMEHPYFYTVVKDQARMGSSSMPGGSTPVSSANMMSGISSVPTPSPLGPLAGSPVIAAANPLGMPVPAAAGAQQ
T1 sequence (P67870 whole entry partner): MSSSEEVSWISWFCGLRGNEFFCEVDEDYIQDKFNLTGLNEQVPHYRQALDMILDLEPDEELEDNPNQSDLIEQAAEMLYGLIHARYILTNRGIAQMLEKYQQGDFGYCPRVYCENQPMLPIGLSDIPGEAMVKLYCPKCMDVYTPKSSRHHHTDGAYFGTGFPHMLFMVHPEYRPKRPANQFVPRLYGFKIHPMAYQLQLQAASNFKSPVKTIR

For `COc1ccc(CCn2c3c(c4c2-c2ccccc2C4=O)C(=O)CCC3)cc1OC` (hydrate or solvate) [Compound 4j, 5-[2-(3,4-Dimethoxyphenyl)ethyl]-5,6,7,8-tetrahydroindeno[1,2-b]indole-9,10-dione], the melting point (as a rule, the temperature, or range, at which the solid turns liquid) lay in the range of 189 to 190 °C.
The molecule `CC(c1ccccc1)n1c2c(c3c1-c1ccccc1C3=O)C(=O)CCC2` (racemic) [Compound 4f, DL-5-(1-phenylethyl)-5,6,7,8-tetrahydro-indeno[1,2-b]indole-9,10-dione] had a melting point of 201 °C. The inhibition (usually the share of the control response that was lost under treatment) at 10 µM in [1] amounted to 66%. The activity at 20 µM in the data set with 5637 (read-out: T/C (%) Mean) was determined as 64.9%. For the same molecule, in the data set with SISO (read-out: T/C (%) Mean), the activity at 20 µM is 95.8%. The activity at 20 µM in the data set on KYSE-70 (read-out: T/C (%) Mean) is 62.3%.
The molecule `O=C1CCCc2[nH]c3c(c21)C(=O)c1ccccc1-3` [Compound 4a, 5,6,7,8-Tetrahydroindeno[1,2-b]indole-9,10-dione] had a melting point of 332 to 333 °C. Moreover, in the data set with 5637 (read-out: T/C (%) Mean), the activity at 20 µM is 80.9%. In addition, in the data set with SISO (read-out: T/C (%) Mean), the activity at 20 µM was determined as 99.9%. Besides, the activity at 20 µM in the data set with KYSE-70 (read-out: T/C (%) Mean) was 77.5%.
In turn, `O=C1CCCc2c1c1c(n2Cc2ccccc2)-c2ccccc2C1=O` [Compound 4c, 5-Benzyl-5,6,7,8-tetrahydroindeno[1,2-b]indole-9,10-dione] had a melting point of 185 °C. For the same molecule, in the data set with 5637 (read-out: T/C (%) Mean), the activity at 20 µM was found to be 53.6%. Besides, in the data set with SISO (read-out: T/C (%) Mean), the activity at 20 µM turned out to be 86.4%. Besides, in the data set on KYSE-70 (read-out: T/C (%) Mean), the activity at 20 µM turned out to be 65.8%.
On to `O=C1CCCc2c1c1c(n2CCc2ccccc2)-c2ccccc2C1=O` [Compound 4d, 5-Phenethyl-5,6,7,8-tetrahydro-indeno[1,2-b]indole-9,10-dione], for which, in data set [1], the inhibition at 10 µM is 67%. In addition, the IC50 in [1] is 0.82 µM; in the data set with 5637 (5637, read-out: IC50 (μM) Mean, inhibition of cell proliferation), 10.7 µM; in the data set on SISO (read-out: IC50 (μM) Mean, inhibition of cell proliferation) it was 12.3 µM; with KYSE-70 (KYSE-70, read-out: IC50 (μM) Mean, inhibition of cell proliferation), greater than 20 µM; in the data set on MCF-7 it was 6.53 µM; in the data set with DAN-G it was greater than 20 µM. Also, the IC50 is 5.66 µM in the data set with LCLC, greater than 20 µM in the data set on A427 and greater than 20 µM in the data set on RT-4. Also, the figures for the activity at 20 µM with 5637 (read-out: T/C (%) Mean), in the data set with SISO (read-out: T/C (%) Mean) and in the data set on KYSE-70 (read-out: T/C (%) Mean) were 48%, 65.5% and 67.5%, respectively.
On to `O=C1CCCc2c1c1c(n2-c2ccccc2)-c2ccccc2C1=O` [Compound 4g, 5-Phenyl-5,6,7,8-tetrahydroindeno[1,2-b]indole-9,10-dione], for which the inhibition at 10 µM in [1] came to 60%. For the same molecule, the IC50 in data set [1] turned out to be 1.44 µM. The activity at 10 µM was 86.3% with 5637 (5637, tested at 10 μM (**), read-out: T/C (%) Mean); 101% in the data set on SISO (tested at 10 μM (**), read-out: T/C (%) Mean); 81.8% in the data set with KYSE-70 (KYSE-70, tested at 10 μM (**), read-out: T/C (%) Mean).
On to `COc1ccc(Cn2c3c(c4c2-c2ccccc2C4=O)C(=O)CCC3)cc1` [Compound 4i, 5-(4-Methoxybenzyl)-5,6,7,8-tetrahydro-indeno[1,2-b]indole-9,10-dione], for which the melting point was 198 to 199 °C. The activity at 20 µM in the data set on 5637 (read-out: T/C (%) Mean) was found to be 78.2%. Further, the activity at 20 µM in the data set on SISO (read-out: T/C (%) Mean) was 93.6%. In addition, in the data set with KYSE-70 (read-out: T/C (%) Mean), the activity at 20 µM worked out at 79.2%.
On to `COc1ccc(CCn2c3c(c4c2-c2ccccc2C4=O)C(=O)CCC3)cc1OC` [Compound 4j, 5-[2-(3,4-Dimethoxyphenyl)ethyl]-5,6,7,8-tetrahydroindeno[1,2-b]indole-9,10-dione], for which the activity at 20 µM with 5637 (read-out: T/C (%) Mean) worked out at 101%; in the data set on SISO (read-out: T/C (%) Mean), 105%; in the data set on KYSE-70 (read-out: T/C (%) Mean), 91.5%.
As for `COC(=O)C1C(=O)c2c([nH]c3c2C(=O)c2ccccc2-3)CC1C` (stereo not shown) [Compound 4l, Methyl 7-methyl-9,10-dioxo-5,6,7,8,9,10-hexahydroindeno[1,2-b]indole-8-carboxylate], the melting point amounted to 287 °C. Moreover, the activity at 20 µM with 5637 (read-out: T/C (%) Mean) worked out at 79.1%. The activity at 20 µM with SISO (read-out: T/C (%) Mean) is 104%. Besides, in the data set with KYSE-70 (read-out: T/C (%) Mean), the activity at 20 µM turned out to be 98.8%.
As for `O=C1CC(c2ccccc2)Cc2c1c1c(n2Cc2ccccc2)-c2ccccc2C1=O` (stereo not shown) [Compound 4n, 5-Benzyl-7-phenyl-5,6,7,8-tetrahydro-indeno[1,2-b]indole-9,10-dione], the activity at 20 µM in the data set on 5637 (read-out: T/C (%) Mean) came to 39.4%; with SISO (read-out: T/C (%) Mean), 80.9%; in the data set with KYSE-70 (read-out: T/C (%) Mean), 75.2%.
Taken in the same sequence, the figures for `CC1CC(=O)c2c3c(n(CCc4ccccc4)c2C1)-c1ccccc1C3=O` (stereo not shown) [Compound 4p, 7-Methyl-5-phenethyl-5,6,7,8-tetrahydro-indeno[1,2-b]indole-9,10-dione] were 49.8%, 96.3% and 72.1%.
In the case of `CC(C)n1c2c(c3c(O)cccc31)C(=O)c1ccccc1-2` [Compound 5b, 9-Hydroxy-5-isopropyl-5H-indeno[1,2-b]indol-10-one], the activity at 20 µM in the data set on 5637 (read-out: T/C (%) Mean) stood at 77.5%; with SISO (read-out: T/C (%) Mean), 104%; in the data set on KYSE-70 (read-out: T/C (%) Mean) it was 77.6%.
On to `O=c1ccc(=O)c2c1c1c(=O)c3ccccc3c1n2CCc1ccccc1` [Compound 6d, 5-Phenethyl-5H-indeno[1,2-b]indole-6,9,10-trione], for which the inhibition at 10 µM in [1] is 70%. The IC50 in data set [1] worked out at 5.74 µM. In addition, the activity at 5 µM is 69.7% in the data set on 5637 (5637, tested at 5 μM (*), read-out: T/C (%) Mean); 87.2% in the data set on SISO (tested at 5 μM (*), read-out: T/C (%) Mean); 92% with KYSE-70 (KYSE-70, tested at 5 μM (*), read-out: T/C (%) Mean).
The molecule `CN(C)CCn1c2c(c3c1-c1ccccc1C3=O)C(=O)CCC2` [Example 11, 5-(2-Dimethylaminoethyl)-5,6,7,8-tetra-hydroindeno[1,2-b]indole-9,10-dione] returned a melting point of 178 °C.
In the case of `O=C1CCCc2c1c1c(n2CCCO)-c2ccccc2C1=O` [Example 12, 5-(3-Hydroxypropyl)-5,6,7,8-tetrahydro-indeno[1,2-b]indole-9,10-dione], the melting point worked out at 241 °C.
On to `O=C(O)Cn1c2c(c3c1-c1ccccc1C3=O)C(=O)CCC2` [Example 13, (9,10-Dioxo-6,8,9,10-tetrahydro-7H-indeno[1,2-b]indol-5-yl)acetic acid], for which the melting point is 279 to 280 °C (dec.).
As to `O=C1CCCc2c1c1c(n2CCO)-c2ccccc2C1=O` [Example 14, 5-(2-Hydroxyethyl)-5,6,7,8-tetrahydro-indeno[1,2-b]indole-9,10-dione], the melting point fell in the range of 262 to 263 °C.
`CCOCCCn1c2c(c3c1-c1ccccc1C3=O)C(=O)CCC2` [Example 16, 5-Ethoxypropyl-5,6,7,8-tetrahydro-indeno[1,2-b]indole-9,10-dione] showed a melting point of 129 °C.
Turning to `COC(=O)C1C(=O)c2c3c(n(-c4ccccc4)c2CC1C)-c1ccccc1C3=O` (stereo not shown) [Example 20, Methyl 7-methyl-9,10-dioxo-5-phenyl-5,6,7,8,9,10-hexahydroindeno[1,2-b]indole-8-carboxylate], the melting point is 249 to 250 °C.
Regarding `Cc1cc(O)c2c(c1)C(=O)c1cc(O)cc(O)c1C2=O` [emodin], the IC50 in the data set on CK2 is 2 µM.
